The results in this text go back to patent US11180462B2, “Microbiocidal oxadiazole derivatives” (SYNGENTA PARTICIPATIONS AG, priority 2015, dated 2021).

The subject of test [1] is Puccinia recondita f. Sp. Tritici. Kind of test: Fungicidal activity against Puccinia recondita f. sp. tritici / wheat / leaf disc preventative (brown rust). It counts as in vivo. To be noted: foliar, 200 ppm in the applied formulation, wheat leaf segments, preventative, compared to untreated control leaf disks, read-out: disease control. In short, it runs like this:
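Percent disease control relative to untreated check segments is scored once disease develops, 7 to 9 days after application. Wheat cv. Kanzler segments receive compound spray (200 ppm in formulation) one day before spore inoculation, then sit at 19° C. and 75% rh under 12 h light/12 h dark.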

In test [2] the test system is Phakopsora Pachyrhizi. Kind of test: Fungicidal activity against Phakopsora pachyrhizi / soybean / leaf disc preventative (Asian soybean rust). Conditions: foliar, 200 ppm in the applied formulation, soybean leaf disks, compared to untreated control leaf disks, read-out: disease control. It counts as in vivo. On the procedure:
Leaf disks or leaf segments of various plant species are cut from plants grown in a greenhouse. The cut leaf disks or segments are placed in multiwell plates (24-well format) onto water agar. The leaf disks are sprayed with a test solution before (preventative) or after (curative) inoculation. Compounds to be tested are prepared as DMSO solutions (max. 10 mg/ml) which are diluted to the appropriate concentration with 0.025% Tween20 just before spraying. The inoculated leaf disks or segments are incubated under defined conditions (temperature, relative humidity, light, etc.) according to the respective test system. A single evaluation of disease level is carried out 3 to 14 days after inoculation, depending on the pathosystem. Percent disease control relative to the untreated check leaf disks or segments is then calculated.
Fungicidal Activity Against Phakopsora Pachyrhizi Soybean/Leaf Disc Preventative (Asian Soybean Rust)
Soybean leaf disks are placed on water agar in multiwell plates (24-well format) and sprayed with the formulated test compound diluted in water. One day after application leaf discs are inoculated by spraying a spore suspension on the lower leaf surface. After an incubation period in a climate cabinet of 24-36 hours in darkness at 20° C. and 75% rh leaf disc are kept at 20° C. with 12 h light/day and 75% rh. The activity of a compound is assessed as percent disease control compared to untreated when an appropriate level of disease damage appears in untreated check leaf disks (12 to 14 days after application).
The following compounds at 200 ppm in the applied formulation give at least 80% disease control in this test when compared to untreated control leaf disks under the same conditions, which show extensive disease development.

Test [3] relates to Glomerella lagenarium (Colletotrichum lagenarium). Briefly: Fungicidal activity against Glomerella lagenarium (Colletotrichum lagenarium) liquid culture / cucumber / preventative (anthracnose). It counts as cell-based. Conditions: Colletotrichum orbiculare; 20 ppm in the applied formulation; liquid culture (PDB), growth inhibition measured photometrically after 3 to 4 days; compared to untreated control; read-out: disease control. In a few lines:
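Percent activity against the untreated check was derived from photometric growth measurements made 2 to 7 days after conidia in potato dextrose broth were combined with compound at 20 ppm. Cultures were kept dark at 24 °C and 96% humidity.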

Consider `O=C(C1CCCC1)N(Cc1ccc(-c2noc(C(F)(F)F)n2)cc1)CC1CC1` [Compound 1.212, N-(cyclopropylmethyl)-N-[[4-[5-(trifluoromethyl)-1,2,4-oxadiazol-3-yl]phenyl]methyl]-cyclopentane-carboxamide], for which the pest or weed control at 200 ppm in test [1] and in test [2] was not below 80% in each case. The inhibition of growth at 20 ppm in test [3] was not below 80%.

On to `CCON(Cc1ccc(-c2noc(C(F)(F)F)n2)cc1)C(=O)CC` [Compound 1.562, N-ethoxy-N-[[4-[5-(trifiuoromethyl)-1,2,4-oxadiazol-3-yl]phenyl]methyl]-propanamide], for which the pest or weed control at 200 ppm in test [1] and in test [2] was not below 80% throughout. For the same compound, the inhibition of growth at 20 ppm in test [3] is not below 80%.

Turning to `CON(C(=O)C1(C#N)CC1)C(C)c1ccc(-c2noc(C(F)(F)F)n2)cc1` (stereo not shown) [Compound 1.274, 1-cyano-N-methoxy-N-[1-[4-[5-(trifluoromethyl)-1,2,4-oxadiazol-3-yl]phenyl]ethyl]-cyclopropane-carboxamide], the pest or weed control at 200 ppm in test [1] and in test [2] was not below 80% in each case. The inhibition of growth at 20 ppm in test [3] was not below 80%.

For the compound `CON(Cc1ccc(-c2noc(C(F)(F)F)n2)cc1)C(=O)NC1CCCCC1` [Compound 3.11, 3-cyclohexyl-1-methoxy-1-[[4-[5-(trifluoromethyl)-1,2,4-oxadiazol-3-yl]phenyl]methyl]urea], the pest or weed control at 200 ppm in test [1] and in test [2] was not below 80% throughout. Further, the inhibition of growth at 20 ppm in test [3] was not below 80%.

In the case of `N#CCC(=O)N(CCO)Cc1ccc(-c2noc(C(F)(F)F)n2)cc1` [Compound 1.728, 2-cyano-N-(2-hydroxyethyl)-N-[[4-[5-(trifluoromethyl)-1,2,4-oxadiazol-3-yl]phenyl]methyl]-acetamide], the pest or weed control at 200 ppm in test [1] and in test [2] was not below 80% in each case.

Turning to `CCON(Cc1ccc(-c2noc(C(F)(F)F)n2)cc1)C(=O)C1(C#N)CC1` [Compound 1.628, 1-cyano-N-ethoxy-N-[[4-[5-(trifluoromethyl)-1,2,4-oxadiazol-3-yl]phenyl]methyl]-cyclopropane-carboxamide], the pest or weed control at 200 ppm in test [1] and in test [2] was not below 80% throughout. For the same compound, the inhibition of growth at 20 ppm in test [3] was not below 80%.

With `CCCCON(Cc1ccc(-c2noc(C(F)(F)F)n2)cc1)C(=O)C1CCOC1` (stereo not shown) [Compound 1.636, N-butoxy-N-[[4-[5-(trifluoromethyl)-1,2,4-oxadiazol-3-yl]phenyl]methyl]-tetrahydrofuran-3-carboxamide], the pest or weed control at 200 ppm in test [1] and in test [2] was not below 80% each time. Also, the inhibition of growth at 20 ppm in test [3] is not below 80%.

Take `O=C(c1ccccc1Cl)N(CCO)Cc1ccc(-c2noc(C(F)(F)F)n2)cc1` [Compound 1.709, 2-chloro-N-(2-hydroxyethyl)-N-[[4-[5-(trifluoromethyl)-1,2,4-oxadiazol-3-yl]phenyl]methyl]-benzamide]: the pest or weed control at 200 ppm in test [1] and in test [2] was not below 80% throughout. In test [3], the inhibition of growth at 20 ppm was not below 80%.

As to `CC(C)N(Cc1ccc(-c2noc(C(F)(F)F)n2)cc1)C(=O)c1ccccc1Cl` [Compound 1.672, 2-chloro-N-isopropyl-N-[[4-[5-(trifluoromethyl)-1,2,4-oxadiazol-3-yl]phenyl]methyl]-benzamide], the pest or weed control at 200 ppm in test [1] and in test [2] was not below 80% each time. Also, the inhibition of growth at 20 ppm in test [3] was not below 80%.

For `CON(Cc1ccc(-c2noc(C(F)(F)F)n2)cc1)C(=O)C1(C)CCCCC1` [Compound 1.33, N-methoxy-1-methyl-N-[[4-[5-(trifluoromethyl)-1,2,4-oxadiazol-3-yl]phenyl]methyl]-cyclohexane-carboxamide], the pest or weed control at 200 ppm in test [1] and in test [2] was not below 80% throughout. Moreover, the inhibition of growth at 20 ppm in test [3] is not below 80%.

As to `CCCCON(Cc1ccc(-c2noc(C(F)(F)F)n2)cc1)C(=O)C1CC1(F)F` (stereo not shown) [Compound 1.634, N-butoxy-2,2-difluoro-N-[[4-[5-(trifluoromethyl)-1,2,4-oxadiazol-3-yl]phenyl]methyl]-cyclopropane-carboxamide], the pest or weed control at 200 ppm in test [2] was not below 80%. The inhibition of growth at 20 ppm in test [3] is not below 80%.

For the compound `O=C(CC(F)(F)F)N(Cc1ccc(-c2noc(C(F)(F)F)n2)cc1)CC1CC1` [Compound 1.220, N-(cyclopropylmethyl)-3,3,3-trifluoro-N-[[4-[5-(trifluoromethyl)-1,2,4-oxadiazol-3-yl]phenyl]methyl]-propanamide], the pest or weed control at 200 ppm in test [2] is not below 80%. For the same compound, in test [3], the inhibition of growth at 20 ppm was not below 80%.

As for `O=C(CC1CC1)N(Cc1ccc(-c2noc(C(F)(F)F)n2)cc1)CC(F)(F)F` [Compound 1.706, 2-cyclopropyl-N-(2,2,2-trifluoroethyl)-N-[[4-[5-(trifluoromethyl)-1,2,4-oxadiazol-3-yl]phenyl]methyl]-acetamide], the pest or weed control at 200 ppm in test [2] is not below 80%. The inhibition of growth at 20 ppm in test [3] is not below 80%.

In the case of `CCCN(Cc1ccc(-c2noc(C(F)(F)F)n2)cc1)C(=O)c1ccccc1Cl` [Compound 1.653, 2-chloro-N-propyl-N-[[4-[5-(trifiuoromethyl)-1,2,4-oxadiazol-3-yl]phenyl]methyl]-benzamide], the pest or weed control at 200 ppm in test [2] is not below 80%. The inhibition of growth at 20 ppm in test [3] was not below 80%.

Take `CCON(Cc1ccc(-c2noc(C(F)(F)F)n2)cc1)C(=O)c1ccccc1Cl` [Compound 1.616, 2-chloro-N-ethoxy-N-[[4-[5-(trifluoromethyl)-1,2,4-oxadiazol-3-yl]phenyl]methyl]-benzamide]: the pest or weed control at 200 ppm in test [2] was not below 80%. Besides, in test [3], the inhibition of growth at 20 ppm is not below 80%.

`CCCCON(Cc1ccc(-c2noc(C(F)(F)F)n2)cc1)C(C)=O` [Compound 1.649, N-butoxy-N-[[4-[5-(trifluoromethyl)-1,2,4-oxadiazol-3-yl]phenyl]methyl]-acetamide]: the pest or weed control at 200 ppm in test [2] is not below 80%. Besides, in test [3], the inhibition of growth at 20 ppm is not below 80%.

On to `O=C(c1ccccc1Cl)N(Cc1ccc(-c2noc(C(F)(F)F)n2)cc1)CC(F)(F)F` [Compound 1.691, 2-chloro-N-(2,2,2-trifluoroethyl)-N-[[4-[5-(trifluoromethyl)-1,2,4-oxadiazol-3-yl]phenyl]methyl]-benzamide], for which the pest or weed control at 200 ppm in test [2] was not below 80%. Also, the inhibition of growth at 20 ppm in test [3] is not below 80%.

Turning to `N#CC1(C(=O)OCCN(Cc2ccc(-c3noc(C(F)(F)F)n3)cc2)C(=O)C2(C#N)CC2)CC1` [Compound 1.730, 2-[(1-cyanocyclopropane-carbonyl)-[[4-[5-(trifluoromethyl)-1,2,4-oxadiazol-3-yl]phenyl]methyl]-amino]ethyl 1-cyanocyclopropane-carboxylate], the pest or weed control at 200 ppm in test [2] is not below 80%. Further, the inhibition of growth at 20 ppm in test [3] is not below 80%.

Turning to `O=C(C1CC1)N(Cc1ccc(-c2noc(C(F)(F)F)n2)cc1)CC1CC1` [Compound 1.246, N-(cyclopropylmethyl)-N-[[4-[5-(trifluoromethyl)-1,2,4-oxadiazol-3-yl]phenyl]methyl]-cyclopropane-carboxamide], the pest or weed control at 200 ppm in test [2] is not below 80%. Further, the inhibition of growth at 20 ppm in test [3] is not below 80%.

Take `C#CCC(NS(=O)(=O)CC)C(=O)N(Cc1ccc(-c2noc(C(F)(F)F)n2)cc1)OC` (stereo not shown) [Compound 1.60, 2-(ethylsulfonylamino)-N-methoxy-N-[[4-[5-(trifluoromethyl)-1,2,4-oxadiazol-3-yl]phenyl]methyl]-pent-4-ynamide]: the pest or weed control at 200 ppm in test [1] and in test [2] was not below 80% throughout.

As for `CCCCON(Cc1ccc(-c2noc(C(F)(F)F)n2)cc1)C(=O)C1CCCO1` (stereo not shown) [Compound 1.644, N-butoxy-N-[[4-[5-(trifluoromethyl)-1,2,4-oxadiazol-3-yl]phenyl]methyl]-tetrahydrofuran-2-carboxamide], the pest or weed control at 200 ppm in test [2] is not below 80%. In test [3], the inhibition of growth at 20 ppm is not below 80%.

Take `CCON(Cc1ccc(-c2noc(C(F)(F)F)n2)cc1)C(=O)CC(F)(F)F` [Compound 1.630, N-ethoxy-3,3,3-trifluoro-N-[[4-[5-(trifluoromethyl)-1,2,4-oxadiazol-3-yl]phenyl]methyl]-propanamide]: the pest or weed control at 200 ppm in test [2] was not below 80%. Moreover, the inhibition of growth at 20 ppm in test [3] was not below 80%.

`CCCCON(Cc1ccc(-c2noc(C(F)(F)F)n2)cc1)C(=O)C1(C)CC1` [Compound 1.639, N-butoxy-1-methyl-N-[[4-[5-(trifluoromethyl)-1,2,4-oxadiazol-3-yl]phenyl]methyl]-cyclopropane-carboxamide]: in test [2], the pest or weed control at 200 ppm is not below 80%. In test [3], the inhibition of growth at 20 ppm is not below 80%.
